Earlier results in patent US5047247A, “Dispersible tablets of dihydroergotoxine methanesulfonate and of acid addition salts thereof” (LEK, priority 1988, dated 1991).

Substance	solubility in water, in words
dihydroergotoxine	poorly soluble in water
dihydroergotoxine methanesulphonate	poorly soluble in water
